Columns and labels:
[1] = target: recombinant human FLAP protein (Homo sapiens (Human), UniProt P20292); test: FLAP binding assay (Scintillation Proximity Assay); details: displacement of [125I]L-691,831, membranes of sf9 cells expressing human FLAP; read-out: SPA IC50
Description: Compounds are assessed for the ability to bind to FLAP in a binding assay that measures compound-specific displacement of an iodinated (^125I) FLAP inhibitor via a Scintillation Proximity Assay format (adapted from S. Charleson et al., Mol. Pharmacol., 1992, 41, 873-879).
Cell pellets produced from sf9 insect cells expressing recombinant human FLAP protein are resuspended in buffer A [15 mM Tris-HCl (pH 7.5), 2 mM MgCl2, 0.3 mM EDTA, 1 mM PMSF]. The cells are lysed with a Dounce homogenizer and the material is centrifuged at 10,000×g for 10 minutes. The supernatant is then collected and centrifuged at 100,000×g for 60 minutes. To prepare membrane protein for an assay, an aliquot of the 100,000×g pellet is resuspended in 1 ml of buffer A, Dounce homogenized, and finally subjected to polytron mixing (30 seconds). Membrane protein (25 μl, 5 μg) is mixed with WGA SPA beads (Amersham) and stirred for 1 h. To an assay plate (Perkin Elmer FlexiPlate) is added 25 μl of test compound prepared in Binding buffer [100 mM Tris (pH 7.5), 140 mM NaCl, 5% glycerol, 2 mM EDTA, 0.5 mM TCEP, 0.05% Tween 20], 25 μl of [^125I]L-691,831 (an iodinated analog of MK-591, Charleson et al. Mol. Pharmacol., 41, 873-879, 1992) and finally 50 μl of the bead/protein mixture. (final concentrations: beads, 200 μg/well; protein, 5 μg/well; [^125I] probe, 0.08 nM/well (17 nCi/well). The plates are shaken for 2 h before reading on a Microbeta plate reader. Non-specific binding is determined by the addition of 10 μM cold L-691,831 compound.

[2] = tested on: synthesis of LTB4 in human whole blood; test: human whole blood LTB4 production inhibition assay; assay type: cell-based; details: heparinized human whole blood, calcimycin-stimulated, plasma LTB4; read-out: hWB IC50
Description: Compounds are additionally tested in a human whole blood assay to determine their ability to inhibit the synthesis of LTB4 in a cellular system. Compounds are combined with heparinized human whole blood and incubated for 15 minutes at 37° C. Calcimycin ([…], prepared in phosphate-buffered saline, pH 7.4) is then added and the mixture is incubated for another 30 minutes at 37° C. The samples are centrifuged for 5 min at low speed (1500×g) and the plasma layer is removed. Plasma LTB4 concentrations are then measured using an antibody-based homogenous time-resolved fluorescence method (CisBio, Bedford, Mass.).

recombinant human FLAP protein, sequence (P20292 whole entry): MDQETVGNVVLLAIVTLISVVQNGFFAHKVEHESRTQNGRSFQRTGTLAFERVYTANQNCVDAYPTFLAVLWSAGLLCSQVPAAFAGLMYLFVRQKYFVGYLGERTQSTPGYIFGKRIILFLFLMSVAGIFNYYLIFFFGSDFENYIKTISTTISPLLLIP

| SMILES | IC50 [1] | IC50 [2] |
| --- | --- | --- |
| CC(C)(C)n1c(-c2ccccc2C(=O)O)nc2cc(-c3cnc(N)nc3)ccc21 [Example 1, 2-[5-(2-Amino-pyrimidin-5-yl)-1-tert-butyl-1H-benzoimidazol-2-yl]-benzoic acid] | 1400 nM |  |
| CC(C)(C)n1c(-c2ccccc2C(=O)NC2CC2)nc2cc(-c3cnc(N)nc3)ccc21 [Example 2, 2-[5-(2-Amino-pyrimidin-5-yl)-1-tert-butyl-1H-benzoimidazol-2-yl]-N-cyclopropyl-benzamide] | 25.2 nM | 2190 nM |
| CC(C)(C)n1c(-c2ccccc2C(=O)Nc2ccncc2)nc2cc(-c3cnc(N)nc3)ccc21 [Example 3, 2-[5-(2-Amino-pyrimidin-5-yl)-1-tert-butyl-1H-benzoimidazol-2-yl]-N-pyridin-4-yl-benzamide] | 0.91 nM | 763 nM |
| CNC(=O)c1ccccc1-c1nc2cc(-c3cnc(N)nc3)ccc2n1C(C)(C)C [Example 4, 2-[5-(2-Amino-pyrimidin-5-yl)-1-tert-butyl-1H-benzoimidazol-2-yl]-N-methyl-benzamide] | 11.4 nM | 433 nM |
| CNC(=O)c1cc(F)c(F)cc1-c1nc2cc(-c3cnc(N)nc3)ccc2n1C(C)(C)C [Example 5, 2-[5-(2-Amino-pyrimidin-5-yl)-1-tert-butyl-1H-benzoimidazol-2-yl]-4,5-difluoro-N-methyl-benzamide] |  | 357 nM |
| CNC(=O)c1ccc(F)cc1-c1nc2cc(-c3cnc(N)nc3)ccc2n1C(C)(C)C [Example 6, 2-[5-(2-Amino-pyrimidin-5-yl)-1-tert-butyl-1H-benzoimidazol-2-yl]-4-fluoro-N-methyl-benzamide] | 5.07 nM | 130 nM |
| CNC(=O)c1cc(OC)ccc1-c1nc2cc(-c3cnc(N)nc3)ccc2n1C(C)(C)C [Example 7, 2-[5-(2-Amino-pyrimidin-5-yl)-1-tert-butyl-1H-benzoimidazol-2-yl]-5-methoxy-N-methyl-benzamide] | 21.9 nM | 414 nM |
| CNC(=O)c1ccc(C#N)cc1-c1nc2cc(-c3cnc(N)nc3)ccc2n1C(C)(C)C [Example 8, 2-[5-(2-Amino-pyrimidin-5-yl)-1-tert-butyl-1H-benzoimidazol-2-yl]-4-cyano-N-methyl-benzamide] | 7.4 nM | 94 nM |
| CNC(=O)c1ccc(-c2nn[nH]n2)cc1-c1nc2cc(-c3cnc(N)nc3)ccc2n1C(C)(C)C [Example 9, 2-[5-(2-Amino-pyrimidin-5-yl)-1-tert-butyl-1H-benzoimidazol-2-yl]-N-methyl-4-(2H-tetrazol-5-yl)-benzamide] | 111 nM | > 5000 nM |
| CC(C)(C)n1c(-c2cc(C#N)ccc2C(=O)NC#N)nc2cc(-c3cnc(N)nc3)ccc21 [Example 10, 2-[5-(2-Amino-pyrimidin-5-yl)-1-tert-butyl-1H-benzoimidazol-2-yl]-4-cyano-N-cyano-benzamide] | 6.09 nM |  |
| CC(C)(C)n1c(-c2cc(C#N)ccc2C(=O)NS(C)(=O)=O)nc2cc(-c3cnc(N)nc3)ccc21 [Example 11, N-{2-[5-(2-Amino-pyrimidin-5-yl)-1-tert-butyl-1H-benzoimidazol-2-yl]-4-cyano-benzoyl}-methanesulfonamide] | 55.6 nM |  |
| CN(C)C(=O)c1ccc(F)c(-c2nc3cc(-c4cnc(N)nc4)ccc3n2C(C)(C)C)c1 [Example 12, 3-[5-(2-Amino-pyrimidin-5-yl)-1-tert-butyl-1H-benzoimidazol-2-yl]-4-fluoro-N,N-dimethyl-benzamide] | 610 nM | > 5000 nM |
| CC(C)(C)n1c(-c2ccccc2C(N)=O)nc2cc(-c3cnc(N)nc3)ccc21 [Example 14, 2-[5-(2-Amino-pyrimidin-5-yl)-1-tert-butyl-1H-benzoimidazol-2-yl]-benzamide] |  | 1150 nM |
| CC(C)(C)n1c(-c2cc(C(=O)O)ccc2F)nc2cc(-c3cnc(N)nc3)ccc21 [Example 15, 3-[5-(2-Amino-pyrimidin-5-yl)-1-tert-butyl-1H-benzoimidazol-2-yl]-4-fluoro-benzoic acid] | 220 nM | > 5000 nM |
| CC(C)(C)n1c(-c2cccc(C(=O)O)c2)nc2cc(-c3cnc(N)nc3)ccc21 [Example 16, 3-[5-(2-Amino-pyrimidin-5-yl)-1-tert-butyl-1H-benzoimidazol-2-yl]-benzoic acid] | 645 nM |  |
| COC(=O)c1ccccc1-c1nc2cc(-c3cnc(N)nc3)ccc2n1C(C)(C)C [Example 17, 2-[5-(2-Amino-pyrimidin-5-yl)-1-tert-butyl-1H-benzoimidazol-2-yl]-benzoic acid methyl ester] | 22 nM |  |
| CC(C)(C)n1c(-c2ccccc2C(=O)NCC2CCCO2)nc2cc(-c3cnc(N)nc3)ccc21 (stereo not shown) [Example 18, 2-[5-(2-Amino-pyrimidin-5-yl)-1-tert-butyl-1H-benzoimidazol-2-yl]-N-(tetrahydro-furan-2-ylmethyl)-benzamide] | 18.8 nM | 2440 nM |
| COCCNC(=O)c1ccccc1-c1nc2cc(-c3cnc(N)nc3)ccc2n1C(C)(C)C [Example 19, 2-[5-(2-Amino-pyrimidin-5-yl)-1-tert-butyl-1H-benzoimidazol-2-yl]-N-(2-methoxy-ethyl)-benzamide] | 43.8 nM | 2870 nM |
| CC(C)(C)n1c(-c2ccccc2C(=O)Nc2ccccn2)nc2cc(-c3cnc(N)nc3)ccc21 [Example 20, 2-[5-(2-Amino-pyrimidin-5-yl)-1-tert-butyl-1H-benzoimidazol-2-yl]-N-pyridin-2-yl-benzamide] | 2.2 nM | 2700 nM |
| CC(C)(C)NC(=O)c1ccccc1-c1nc2cc(-c3cnc(N)nc3)ccc2n1C(C)(C)C [Example 21, 2-[5-(2-Amino-pyrimidin-5-yl)-1-tert-butyl-1H-benzoimidazol-2-yl]-N-tert-butyl-benzamide] | 14.7 nM | 3290 nM |
| CC(C)(C)n1c(-c2ccccc2C(=O)Nc2cccnc2)nc2cc(-c3cnc(N)nc3)ccc21 [Example 22, 2-[5-(2-Amino-pyrimidin-5-yl)-1-tert-butyl-1H-benzoimidazol-2-yl]-N-pyridin-3-yl-benzamide] | 1.5 nM | 2250 nM |
| CN(C(=O)c1ccccc1-c1nc2cc(-c3cnc(N)nc3)ccc2n1C(C)(C)C)c1ccccn1 [Example 27, 2-[5-(2-Amino-pyrimidin-5-yl)-1-tert-butyl-1H-benzoimidazol-2-yl]-N-methyl-N-pyridin-2-yl-benzamide] | 180 nM |  |
| CCNC(=O)c1ccc(F)cc1-c1nc2cc(-c3cnc(N)nc3)ccc2n1C(C)(C)C [Example 30, 2-[5-(2-Amino-pyrimidin-5-yl)-1-tert-butyl-1H-benzoimidazol-2-yl]-N-ethyl-4-fluoro-benzamide] |  | 413 nM |
| CC(C)(C)n1c(-c2cc(F)ccc2C(=O)Nc2cccnc2)nc2cc(-c3cnc(N)nc3)ccc21 [Example 31, 2-[5-(2-Amino-pyrimidin-5-yl)-1-tert-butyl-1H-benzoimidazol-2-yl]-4-fluoro-N-pyridin-3-yl-benzamide] |  | 1950 nM |
| CC(C)(C)n1c(-c2cc(F)ccc2C(=O)NCc2cccnc2)nc2cc(-c3cnc(N)nc3)ccc21 [Example 32, 2-[5-(2-Amino-pyrimidin-5-yl)-1-tert-butyl-1H-benzoimidazol-2-yl]-4-fluoro-N-pyridin-3-ylmethyl-benzamide] |  | 939 nM |
| COc1cncc(-c2ccc3c(c2)nc(-c2cccc(C(N)=O)c2)n3C(C)(C)C)c1 [Example 35, 3-[1-tert-Butyl-5-(5-methoxy-pyridin-3-yl)-1H-benzoimidazol-2-yl]-benzamide] | 4700 nM |  |

From patent US8829200B2, “Benzimidazole inhibitors of leukotriene production” (Boehringer Ingelheim International GmbH, priority 2010, dated 2014)
